Experimental findings from patent US20240400572A1, “COMPOUNDS AND METHODS FOR TREATING CANCERS THAT ARE MGMT DEFICIENT REGARDLESS OF MMR STATUS” (Yale University, priority 2021, published 2024) are described below.

Structures can show the parent of a compound that is named as a salt. Bounds are passed on as bounds.

Common to all, as to assay: Anticancer activity towards LN229 human brain glioblastoma cells (nuclei count after 120 hours)
Format in all cases: cell-based
Conditions in all cases: LN-229, LN229 quad cells, 200 μM to 0.1 uM

The test system of one assay is LN229 MGMT+ MMR− cells. Here is the method:
(§1) Exemplary compounds were evaluated for activity against LN229 human brain glioblastoma cells. Experimental procedures and results are provided elsewhere herein.
(§2) LN229 quad cells were maintained in Dulbecco's Modified Eagle Medium (DMEM) supplemented with 10% fetal bovine serum. Cells were plated into sterile black with glass bottom 384-well plates (Cellvis) at a concentration of 1,000 cells/well (20 μL total volume) using a MultiDrop (Thermo Fisher). Then, assay plates were centrifuged at 300 rpm for 2 seconds and incubated overnight in a 37° C. 5% CO2 incubator. Compounds were prepared as 100 mM stocks in DMSO and stored protected from light at −20′C until use. Prior to compound addition, the stock solutions of compound were diluted two-fold serially in DMSO from 100 mM down to 0.05 mM in a 384-well Source plate. Vehicle control wells containing DMSO and positive control wells containing 10 mM bortezomib were also added to the Source plate. An aliquot in the amount of 40 nL of compound stock solution or DMSO vehicle was transferred from the source plate to the cell assay plate using an Echo Acoustic dispense (Beckman). Three replicate dilution curves of each compound were run on each assay plate. An aliquot in the amount of 120 nL of a 10 mM bortezomib solution was transferred to the positive control wells resulting in a final concentration of 60 μM. The final concentration of compounds ranged from 200 μM to 0.1 uM (12-point, 2-fold dilution dose response curve), and the final DMSO concentration was 0.2%.
(§3) Assay plates were centrifuged at 500 rpm for 2 seconds and incubated for 120 hours at 37° C. in a humidified 5% CO2 incubator. Following incubation, cells were fixed with 4% paraformaldehyde and stained with DAPI for nuclei visualization. The images were acquired on the InCell 2200 high content imager (GE, now […]), and quantified using InCell Analyzer image analysis software. Z prime factor, signal-to-background and coefficient of variation were calculated for each assays plate using mean and standard deviation values of the negative (vehicle) and positive (bortezomib) control wells to ensure assay robustness. Raw cell count data for test compounds was normalized to percent viability relative to the DMSO vehicle control. Data was plotted in GraphPad Prism using a variable slope 4-parameter fit.

The test system of a further assay is LN229 MGMT− MMR+ cells. How it is done: as §1, §2, §3
The subject of a further assay is LN229 MGMT− MMR− cells. Here is the method: as §1, §2, §3
A further assay has as its system LN229 MGMT+ MMR+ cells. Here is the method: as §1, §2, §3

A word on the IC50: it is the midpoint of a concentration-inhibition curve. As to `CCNC(=O)c1ncn2c(=O)n(CCF)nnc12` [Compound I-2, N-ethyl-3-(2-fluoroethyl)-4-oxo-3H,4H-imidazo[4,3-d][1,2,3,5]tetrazine-8-carboxamide], the IC50 is greater than 80 µM in the assay on LN229 MGMT+ MMR− cells, 10 to 20 µM with LN229 MGMT− MMR+ cells, less than 10 µM with LN229 MGMT− MMR− cells and greater than 80 µM in the assay on LN229 MGMT+ MMR+ cells.
Take `O=C(NCC(F)(F)F)c1ncn2c(=O)n(CCF)nnc12` [Compound I-3, 3-(2-fluoroethyl)-4-oxo-N-(2,2,2-trifluoroethyl)-3H,4H-imidazo[4,3-d][1,2,3,5]tetrazine-carboxamide]: the IC50 in the assay on LN229 MGMT+ MMR− cells was greater than 80 µM; in the assay on LN229 MGMT− MMR+ cells it was less than 10 µM; with LN229 MGMT− MMR− cells, less than 10 µM; in the assay on LN229 MGMT+ MMR+ cells, greater than 80 µM.
In the case of `O=C(NC1CC1)c1ncn2c(=O)n(CCF)nnc12` [Compound I-4, N-cyclopropyl-3-(2-fluoroethyl)-4-oxo-3H,4H-imidazo[4,3-d][1,2,3,5]tetrazine-8-carboxamide], the half-inhibitory concentration (IC50) was greater than 80 µM with LN229 MGMT+ MMR− cells, 10 to 20 µM with LN229 MGMT− MMR+ cells, less than 10 µM with LN229 MGMT− MMR− cells and greater than 80 µM with LN229 MGMT+ MMR+ cells.
As for `O=C(NC1CCC1)c1ncn2c(=O)n(CCF)nnc12` [Compound I-5, N-cyclobutyl-3-(2-fluoroethyl)-4-oxo-3H,4H-imidazo[4,3-d][1,2,3,5]tetrazine-8-carboxamide], the half-inhibitory concentration (IC50) is greater than 80 µM in the assay on LN229 MGMT+ MMR− cells, 10 to 20 µM in the assay with LN229 MGMT− MMR+ cells, less than 10 µM in the assay on LN229 MGMT− MMR− cells and greater than 80 µM in the assay with LN229 MGMT+ MMR+ cells.
As for `CN(C)C(=O)c1ncn2c(=O)n(CCF)nnc12` [Compound I-6, 3-(2-fluoroethyl)-N,N-dimethyl-4-oxo-3H,4H-imidazo[4,3-d][1,2,3,5]tetrazine-8-carboxamide], the IC50 with LN229 MGMT+ MMR− cells is greater than 80 µM; in the assay on LN229 MGMT− MMR+ cells, 20 to 50 µM; in the assay on LN229 MGMT− MMR− cells, 10 to 20 µM; with LN229 MGMT+ MMR+ cells, greater than 80 µM.
Take `O=C(Nc1nccs1)c1ncn2c(=O)n(CCF)nnc12` [Compound I-7, 3-(2-fluoroethyl)-4-oxo-N-(1,3-thiazol-2-yl)-3H,4H-imidazo[4,3-d][1,2,3,5]tetrazine-8-carboxamide]: the IC50 with LN229 MGMT+ MMR− cells, in the assay on LN229 MGMT− MMR+ cells, in the assay with LN229 MGMT− MMR− cells and in the assay on LN229 MGMT+ MMR+ cells was less than 10 µM in each case.
For the compound `O=C(Nc1ccccn1)c1ncn2c(=O)n(CCF)nnc12` [Compound I-8, 3-(2-fluoroethyl)-4-oxo-N-(pyridin-2-yl)-3H,4H-imidazo[4,3-d][1,2,3,5]tetrazine-8-carboxamide], the IC50 in the assay with LN229 MGMT+ MMR− cells is greater than 80 µM; with LN229 MGMT− MMR+ cells, 10 to 20 µM; in the assay on LN229 MGMT− MMR− cells, less than 10 µM; with LN229 MGMT+ MMR+ cells it was greater than 80 µM.
Turning to `O=C(c1ncn2c(=O)n(CCF)nnc12)N1CCC1` [Compound I-9, 8-(azetidine-1-carbonyl)-3-(2-fluoroethyl)-3H,4H-imidazo[4,3-d][1,2,3,5]tetrazin-4-one], the IC50 is greater than 80 µM in the assay with LN229 MGMT+ MMR− cells, 10 to 20 µM with LN229 MGMT− MMR+ cells, less than 10 µM in the assay on LN229 MGMT− MMR− cells and greater than 80 µM in the assay on LN229 MGMT+ MMR+ cells.
With `O=C(c1ncn2c(=O)n(CCF)nnc12)N1CCCC1` [Compound I-10, 3-(2-fluoroethyl)-8-(pyrrolidine-1-carbonyl)-3H,4H-imidazo[4,3-d][1,2,3,5]tetrazin-4-one], the IC50 in the assay with LN229 MGMT+ MMR− cells was greater than 80 µM; with LN229 MGMT− MMR+ cells, 20 to 50 µM; in the assay on LN229 MGMT− MMR− cells, less than 10 µM; with LN229 MGMT+ MMR+ cells, greater than 80 µM.
Take `CN(C)CCNC(=O)c1ncn2c(=O)n(CCF)nnc12` [Compound I-12, N-[2-(dimethylamino)ethyl]-3-(2-fluoroethyl)-4-oxo-3H,4H-imidazo[4,3-d][1,2,3,5]tetrazine-8-carboxamide hydrochloride]: the IC50 with LN229 MGMT+ MMR− cells was greater than 80 µM; in the assay on LN229 MGMT− MMR+ cells, less than 10 µM; in the assay with LN229 MGMT− MMR− cells, less than 10 µM; in the assay with LN229 MGMT+ MMR+ cells, greater than 80 µM.
For `CCCN(CCC)C(=O)c1ncn2c(=O)n(CCF)nnc12` [Compound I-13, 3-(2-fluoroethyl)-4-oxo-N,N-dipropyl-3H,4H-imidazo[4,3-d][1,2,3,5]tetrazine-8-carboxamide], the 50% inhibitory concentration (IC50) in the assay on LN229 MGMT+ MMR− cells is 20 to 50 µM; with LN229 MGMT− MMR+ cells it was 20 to 50 µM; with LN229 MGMT− MMR− cells, 10 to 20 µM; in the assay on LN229 MGMT+ MMR+ cells it was 20 to 50 µM.
Consider `CCN(C)C(=O)c1ncn2c(=O)n(CCF)nnc12` [Compound I-14, N-ethyl-3-(2-fluoroethyl)-N-methyl-4-oxo-3H,4H-imidazo[4,3-d][1,2,3,5]tetrazine-8-carboxamide], for which the IC50 with LN229 MGMT+ MMR− cells is greater than 80 µM; with LN229 MGMT− MMR+ cells it was 20 to 50 µM; in the assay on LN229 MGMT− MMR− cells, 10 to 20 µM; with LN229 MGMT+ MMR+ cells, greater than 80 µM.
As to `CCN(CC)C(=O)c1ncn2c(=O)n(CCF)nnc12` [Compound I-15, N,N-diethyl-3-(2-fluoroethyl)-4-oxo-3H,4H-imidazo[4,3-d][1,2,3,5]tetrazine-8-carboxamide], the 50% inhibitory concentration (IC50) with LN229 MGMT+ MMR− cells was greater than 80 µM; with LN229 MGMT− MMR+ cells, 50 to 80 µM; with LN229 MGMT− MMR− cells, 10 to 20 µM; in the assay with LN229 MGMT+ MMR+ cells it was greater than 80 µM.
Take `CCCNC(=O)c1ncn2c(=O)n(CCF)nnc12` [Compound I-16, 3-(2-fluoroethyl)-4-oxo-N-propyl-3H,4H-imidazo[4,3-d][1,2,3,5]tetrazine-8-carboxamide]: the IC50 was greater than 80 µM in the assay with LN229 MGMT+ MMR− cells, 10 to 20 µM in the assay on LN229 MGMT− MMR+ cells, less than 10 µM in the assay with LN229 MGMT− MMR− cells and greater than 80 µM in the assay with LN229 MGMT+ MMR+ cells.
With `CCCN(C)C(=O)c1ncn2c(=O)n(CCF)nnc12` [Compound I-17, 3-(2-fluoroethyl)-N-methyl-4-oxo-N-propyl-3H,4H-imidazo[4,3-d][1,2,3,5]tetrazine-8-carboxamide], the IC50 with LN229 MGMT+ MMR− cells is greater than 80 µM; with LN229 MGMT− MMR+ cells, greater than 80 µM; with LN229 MGMT− MMR− cells it was 20 to 50 µM; with LN229 MGMT+ MMR+ cells, greater than 80 µM.
`CCCN(CC)C(=O)c1ncn2c(=O)n(CCF)nnc12` [Compound I-18, N-ethyl-3-(2-fluoroethyl)-4-oxo-N-propyl-3H,4H-imidazo[4,3-d][1,2,3,5]tetrazine-8-carboxamide]: the IC50 in the assay on LN229 MGMT+ MMR− cells is greater than 80 µM; in the assay with LN229 MGMT− MMR+ cells it was greater than 80 µM; in the assay on LN229 MGMT− MMR− cells it was 20 to 50 µM; in the assay on LN229 MGMT+ MMR+ cells, greater than 80 µM.
Take `[2H]C([2H])([2H])NC(=O)c1ncn2c(=O)n(CCF)nnc12` [Compound I-19, 3-(2-fluoroethyl)-N-(D3)methyl-4-oxo-3H,4H-imidazo[4,3-d][1,2,3,5]tetrazine-8-carboxamide]: the IC50 with LN229 MGMT+ MMR− cells is greater than 80 µM; in the assay on LN229 MGMT− MMR+ cells it was 50 to 80 µM; with LN229 MGMT− MMR− cells, less than 10 µM; with LN229 MGMT+ MMR+ cells it was greater than 80 µM.
`[2H]C([2H])([2H])N(Cc1ccccc1)C(=O)c1ncn2c(=O)n(CCF)nnc12` [Compound I-20, N-benzyl-3-(2-fluoroethyl)-N-(2H3)methyl-4-oxo-3H,4H-imidazo[4,3-][1,2,3,5]tetrazine-8-carboxamide]: the IC50 in the assay with LN229 MGMT+ MMR− cells was greater than 80 µM; in the assay with LN229 MGMT− MMR+ cells it was 50 to 80 µM; in the assay on LN229 MGMT− MMR− cells it was less than 10 µM; with LN229 MGMT+ MMR+ cells it was greater than 80 µM.
